Read-outs that look alike come from different tables or passages of the source. Each block holds one molecule with its values, some of them ahead of it.
Columns and labels:
[1] = system: H2O2-induced PAR formation (PARP-1 activity) in HCT116 cells; test: PAR immunofluorescence: H2O2-induced PAR formation in HCT116 cells; type: cell-based, human; details: for IC50: Homo sapiens, HCT-116, 2 h pretreatment, 1 mM H2O2 5 min
Procedure: Cells lines were re-authenticated by p53, PARP-1, ATR, and BRCA2 immunoblotting, by their characteristic differential response to genotoxic agents and their typical cell morphology. HCT116, HCT116 BRCA2^−/−, DLD-1 ATR^+/+ and DLD-1 ATR^s/s cells were maintained in DMEM, whereas HCT116 PARP-1^+/+ and HCT116 PARP-1^−/− cells were maintained in RPMI1640 containing 10% FCS and 1% penicillin/streptomycin in a humidified atmosphere at 37 °C and 5% CO2. Caco-2 cells were cultured in MEM with 10% FCS, 1% penicillin/streptomycin, and nonessential amino acids. […] The media and supplements were obtained from PAN-Biotech (Aidenbach, Germany) and Thermo Fisher Scientific (Darmstadt, Germany). Cell culture was frequently tested for contamination with mycoplasma by PCR using the Venor® GeM Classic kit (Minerva Biolabs, Berlin, Germany) and immunofluorescence microscopy with nuclear staining. […] Cells were exposed for 1 h for the quantification of PARP-1 trapping or 2 h for assessing the inhibitory potential by confocal fluorescence microscopy. […] If the PARPi treatment was conducted in combination with cytostatic drugs for 24 h (γH2AX Western blot analysis) or 72 h (cytotoxicity testing), the PARPi was added 2 h prior.
The activity of potential PARP inhibitors was tested in a cell model using immunofluorescence-based detection of PAR essentially as reported previously. HCT116 cells were seeded in Ibidi 12-well chamber slides and cultivated until they reached 70% confluence. Induction of PARylation was achieved by adding 1 mM H2O2 in PBS/1 mM MgCl2 for 5 min at 37 °C. Cells were washed with PBS/1 mM MgCl2 and fixed by adding 4% PFA at RT. After 20 min, cells were washed with PBS/100 mM glycine for 1 min and permeabilized with PBS/0.3% Triton X-100 for 3 min. Blocking of the cells was conducted by adding PBS/0.05% Tween containing 5% powdered milk for 1 h at RT. […] Cells were washed and an Alexa488-coupled secondary antibody was added for 1 h at RT. The slides were mounted with VectaShield containing DAPI and analyzed by confocal microscopy using a Zeiss Axio Observer 7 microscope (Oberkochen, Germany) equipped with a 63× oil objective (Plan-Apochromat 63×/1.40 DIC M27) and a LSM900 confocal laser scanner (Zeiss, Oberkochen, Germany). Images were analyzed using Zeiss Zen software version 3.4 and ImageJ v1.53t (NIH, Bethesda, MD, USA). Briefly, nuclei were identified based on the DAPI signal and marked as regions of interest (ROI). Subsequently, the mean PAR signal in the identified ROI was quantified in each image and exported for further analysis. For the individual experiments, the mean PAR intensity was averaged for each treatment group and the control was set to 100%. Only images with a minimum of 4 cells were included in the analysis and at least 5 images were assessed per treatment group. The experiments were conducted in at least 3 biological replicates. To derive IC50 concentrations, relative PAR levels of the experiments were transferred to GraphPad Prism 9.0 Software (GraphPad Software Inc., Boston, MA, USA) for a nonlinear regression analysis applying a three-parameter model.

PARP-2 = system: PARP-2; design: method as in PMID 34327724; details: cited from earlier work
P-glycoprotein = system: P-glycoprotein; design: method as in PMID 24700236; details: efflux transporter; cited from earlier work
[2] = system: human colonic epithelial cells (HCEC); test: cell viability, resazurin reduction assay, HCEC; details: 72 h; for IC50: read-out: IC50-values HCEC; for cell viability, monotreatment: nonmalignant HCEC, up to 50 µM
Caco-2 cells = test: cell viability, resazurin reduction assay, Caco-2; details: for cell viability, monotreatment: up to 50 µM; for cytotoxicity of IT in combination with PARPi: not statistically significant; for IC50: read-out: IC50-values Caco-2
DLD-1 WT cells = test: cell viability, resazurin reduction assay, DLD-1 WT; details: for IC50: read-out: IC50-values DLD-1 WT; for cell viability, monotreatment: DLD-1 WT
HCT116 WT cells = test: cell viability, resazurin reduction assay, HCT116 WT; details: for IC50: Homo sapiens, HCT-116, 72 h, read-out: IC50-values HCT116 WT
DLD-1 ATRs/s cells = test: cell viability, resazurin reduction assay, DLD-1 ATRs/s; details: for IC50: read-out: IC50-values DLD-1 ATRs/s; for cell viability, monotreatment: DLD-1 ATRs/s
HCT116 BRCA2−/− cells = test: cell viability, resazurin reduction assay, HCT116 BRCA2-/-; details: for IC50: read-out: IC50-values HCT116 BRCA2−/−
HCT116 PARP-1+/+ cells = test: cell viability, resazurin reduction assay, HCT116 PARP-1+/+; details: for IC50: read-out: IC50-values HCT116 PARP1+/+
HCT116 PARP-1−/− cells = test: cell viability, resazurin reduction assay, HCT116 PARP-1-/-; details: for IC50: read-out: IC50-values HCT116 PARP1−/−
PARP-1 [3] = target: T1, PARP-1 (Homo sapiens, UniProt P09874); test: chemiluminescence-based PARP-1 assay kit (recombinant enzyme); details: for IC50: IC50 PARP-1 screening assay kit
T1 sequence (P09874 whole entry): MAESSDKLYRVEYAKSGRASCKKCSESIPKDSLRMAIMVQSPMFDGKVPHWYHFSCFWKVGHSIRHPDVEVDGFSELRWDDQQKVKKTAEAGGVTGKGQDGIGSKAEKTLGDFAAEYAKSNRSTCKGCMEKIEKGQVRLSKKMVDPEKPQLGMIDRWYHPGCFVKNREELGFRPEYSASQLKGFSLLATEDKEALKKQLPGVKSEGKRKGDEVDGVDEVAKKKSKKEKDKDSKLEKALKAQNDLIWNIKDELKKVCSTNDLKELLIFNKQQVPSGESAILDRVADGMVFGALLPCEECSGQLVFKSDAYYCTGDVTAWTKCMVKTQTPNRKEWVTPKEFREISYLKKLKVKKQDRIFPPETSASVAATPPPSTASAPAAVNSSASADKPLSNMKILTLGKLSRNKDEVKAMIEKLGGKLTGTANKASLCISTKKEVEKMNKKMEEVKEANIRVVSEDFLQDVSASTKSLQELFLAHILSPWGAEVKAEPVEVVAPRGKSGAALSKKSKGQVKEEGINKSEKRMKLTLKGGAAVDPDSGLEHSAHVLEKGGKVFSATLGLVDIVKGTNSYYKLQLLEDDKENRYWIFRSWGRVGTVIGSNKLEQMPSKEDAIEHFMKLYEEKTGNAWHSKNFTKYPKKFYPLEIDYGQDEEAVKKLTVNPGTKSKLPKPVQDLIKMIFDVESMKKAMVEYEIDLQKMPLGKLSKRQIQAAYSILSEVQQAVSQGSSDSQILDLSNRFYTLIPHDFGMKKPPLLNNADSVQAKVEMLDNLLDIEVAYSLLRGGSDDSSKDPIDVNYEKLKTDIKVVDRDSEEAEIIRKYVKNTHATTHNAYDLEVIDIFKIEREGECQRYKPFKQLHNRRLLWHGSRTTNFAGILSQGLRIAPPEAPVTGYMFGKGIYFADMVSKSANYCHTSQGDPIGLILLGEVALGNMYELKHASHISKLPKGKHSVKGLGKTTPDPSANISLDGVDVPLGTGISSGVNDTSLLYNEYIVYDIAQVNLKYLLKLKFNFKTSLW

[4] = system: γH2AX formation in HCT116 WT cells; test: γH2AX Western blot in HCT116 WT cells
[5] = system: γH2AX formation in HCT116 BRCA2−/− cells; test: γH2AX Western blot in HCT116 BRCA2-/- cells; details: PARPi 50 µM, IT 0.25 µM 24 h
PARP-1 [6] = target: T1, PARP-1; test: chromatin retention assay (PARP-1 trapping) in HCT116 cells; details: HCT116, MMS 1 mM 1 h with inhibitor
PARP-1 [7] = target: T1, PARP-1; test: chromatin retention assay (PARP-1 trapping) in Caco-2 cells; details: Caco-2, MMS 1 mM 1 h with inhibitor

Compound: O=C(c1cc(Cc2n[nH]c(=O)c3ccccc23)ccc1F)N1CCN(C(=O)C2CC2)CC1 [Olaparib, olaparib]
PAR formation ([1]; 10 nM, positive control): completely blocked PAR formation
P-glycoprotein substrate (P-glycoprotein): known substrates for P-glycoprotein
IC50 ([2]; Homo sapiens, HCEC): > 50 µM
cell viability, monotreatment [2]: moderate decline in viability at the highest concentration
cytotoxicity of IT in combination with PARPi (Caco-2 cells; Caco-2, IT 10 µM): moderately increased the cytotoxicity of IT
IC50 (Caco-2 cells; Homo sapiens, Caco-2, 72 h): > 50 µM
IC50 (DLD-1 WT cells; Homo sapiens, DLD-1, 72 h): 5.88 µM
cytotoxicity, monotreatment (HCT116 BRCA2−/− cells; HCT116 BRCA2−/−, 72 h): High cytotoxicity in the low micromolar concentration range
IC50 (HCT116 BRCA2−/− cells; Homo sapiens, HCT-116, 72 h): 0.46 µM

Compound: C[C@]1(c2nc3c(C(N)=O)cccc3[nH]2)CCCN1 [Veliparib, veliparib]
P-glycoprotein substrate (P-glycoprotein): are not excreted
cell viability, monotreatment [2]: no effect on HCEC
IC50 ([2]; RRA): > 50 µM
cell viability, monotreatment (Caco-2 cells; Caco-2, 72 h): little cytotoxicity at the highest test concentration
cytotoxicity of IT in combination with PARPi (Caco-2 cells; Caco-2, IT 10 µM): moderately increased the cytotoxicity of IT
IC50 (Caco-2 cells; 72 h, RRA): > 50 µM
cell viability, monotreatment (DLD-1 WT cells; 72 h): concentration-dependent decrease in viability in both cell models
IC50 (DLD-1 WT cells; 72 h, RRA): > 50 µM
cell viability, monotreatment (DLD-1 ATRs/s cells; 72 h): concentration-dependent decrease in viability in both cell models
IC50 (DLD-1 ATRs/s cells; 72 h, RRA): > 50 µM
cytotoxicity, monotreatment (HCT116 BRCA2−/− cells; HCT116 BRCA2−/−, 72 h): High cytotoxicity in the low micromolar concentration range
IC50 (HCT116 BRCA2−/− cells): 7.45 µM
cell viability in combination with cytostatics (HCT116 PARP-1+/+ cells): significant decrease in cell viability compared to mono-treatment with cytostatics
cell viability, monotreatment (HCT116 PARP-1+/+ cells): only mild cytotoxicity at the highest test concentration
IC50 (HCT116 PARP-1+/+ cells): > 50 µM
cell viability in combination with cytostatics (HCT116 PARP-1−/− cells): did not sensitize to the anticancer drugs
cell viability, monotreatment (HCT116 PARP-1−/− cells): only mild cytotoxicity at the highest test concentration
IC50 (HCT116 PARP-1−/− cells): > 50 µM
PARP-1 activity, % of the negative control (PARP-1 [3]; concentration of 5 nM): ~50%

IC50 ([1]; range over the three compounds, read-out: IC50 cellular PARP inhibition): 0.005 to 0.035 µM
IC50 ([1]; unit inferred, read-out: IC50 PAR formation in HCT116 cells (Figure A3A)): 0.036 µM
IC50 (Caco-2 cells; Homo sapiens, Caco-2, 72 h): > 50 µM
IC50 (DLD-1 WT cells; Homo sapiens, DLD-1, 72 h): > 50 µM
IC50 (HCT116 WT cells): > 50 µM
IC50 (DLD-1 ATRs/s cells; Homo sapiens, DLD-1, 72 h): > 50 µM
IC50 (HCT116 BRCA2−/− cells; Homo sapiens, HCT-116, 72 h): > 50 µM
PARP-1 trapping (PARP-1 [7]): no effects were detected
IC50 (HCT116 PARP-1+/+ cells; Homo sapiens, HCT-116, 72 h): > 50 µM
IC50 (HCT116 PARP-1−/− cells; Homo sapiens, HCT-116, 72 h): > 50 µM
IC50 (PARP-1 [3]): 0.041 µM
IC50 (PARP-1 [3]; recombinant PARP-1, 1 h RT, n = 2): 0.0413 µM
Compound: O=C(O)C1=NNC(=O)c2cccc3[nH]cc1c23 [X17613, 1-oxo-2,6-dihydro-1H-[1,2]diazepino [4,5,6-cd]indole-4-carboxylic acid]
PAR signal ([1]; concentration of 100 nM, H2O2-induced): significant decrease in the PAR signal
γH2AX, co-treatment with IT compared to IT mono-treatment ([4]; PARPi 50 µM 2 h prior, IT 0.25 µM 24 h): no significant further increase
γH2AX, mono-treatment ([4]; X17613 50 µM or IT 0.25 µM, 24 h): No significant increase in γH2AX
γH2AX, co-treatment with IT [5]: further augmented in the presence of X17613
IC50 ([2]; Homo sapiens, HCEC): > 50 µM
cell viability, monotreatment [2]: no effect on HCEC
cell viability, monotreatment (Caco-2 cells; Caco-2, 72 h): little cytotoxicity at the highest test concentration
sensitization towards the anticancer drugs (Caco-2 cells; Caco-2, IT 10 µM, 5-FU 5 µM, OXA 1 µM): no sensitization towards the anticancer drugs
cell viability, monotreatment (DLD-1 WT cells; 72 h): no effects
cell viability, monotreatment (HCT116 WT cells; HCT116 WT, 72 h, up to 50 µM): no impact
cell viability, monotreatment (DLD-1 ATRs/s cells; 72 h): no effects
decrease of viability (HCT116 BRCA2−/− cells; HCT116 BRCA2−/−, highest test concentration of 50 µM, 72 h): about 25%
cell viability in combination with chemotherapeutics (HCT116 BRCA2−/− cells; HCT116 BRCA2−/−, IT 0.25 µM, 5-FU 0.1 µM, OXA 0.25 µM, 72 h): significant reduction in viability in HCT116 BRCA2^−/− cells in combination with the established cytostatic drug IT
chromatin-bound PARP-1 (PARP-1 trapping) (PARP-1 [6]): No enrichment of PARP-1 in the chromatin fraction
cell viability, monotreatment (HCT116 PARP-1+/+ cells; HCT116 PARP-1+/+, 72 h, up to 50 µM): Neither X17613 nor X17618 decreased cell viability
cell viability in combination with cytostatics (HCT116 PARP-1+/+ cells; HCT116 PARP-1+/+, IT 0.5 µM, 5-FU 0.25 µM, OXA 0.5 µM, 72 h, PARPi added 2 h prior): did not affect the cytotoxicity of the anticancer drugs
cell viability, monotreatment (HCT116 PARP-1−/− cells; HCT116 PARP-1−/−, 72 h, up to 50 µM): Neither X17613 nor X17618 decreased cell viability
cell viability in combination with cytostatics (HCT116 PARP-1−/− cells; HCT116 PARP-1−/−, IT 0.5 µM, 5-FU 0.25 µM, OXA 0.5 µM, 72 h, PARPi added 2 h prior): did not affect the cytotoxicity of the anticancer drugs

Source: article PMC11506018, “Targeting PARP-1 and DNA Damage Response Defects in Colorectal Cancer Chemotherapy with Established and Novel PARP Inhibitors” (Cancers, 2024)
